{"source": "patent US20060216336A1", "about": "“Transdermal therapeutic system for Parkinson's Disease” (priority 2002, published 2006)", "test": "Placebo-controlled trial in early stage idiopathic Parkinson's disease: rotigotine plasma concentrations during titration and maintenance (Example 5)", "type": "in vivo, human", "settings": "for rotigotine plasma concentration, Max / rotigotine plasma concentration, Mean / rotigotine plasma concentration, Median / rotigotine plasma concentration, Min: prior removal", "excerpt": "Trial periods consisted of a 4-week pre-treatment (washout) period, a 3-week dose escalation period, a 25-week dose maintenance period, and a 4-week follow-up period for a total duration of 36 weeks.", "key": {"[1]": {"settings": "Day 1 MP (maintenance period), 13.5 mg/day"}, "[2]": {"settings": "Day 15 TP (titration period), 9.0 mg/day"}, "[3]": {"settings": "Day 57 MP (maintenance period), 13.5 mg/day"}, "[4]": {"settings": "Day 113 MP (maintenance period), 13.5 mg/day"}, "[5]": {"settings": "End of MP (maintenance period), 13.5 mg/day"}}}
{"compound": "CCCN(CCc1cccs1)[C@H]1CCc2c(O)cccc2C1", "note": "[rotigotine, (6S)-6{propyl[2-(2-thienyl)ethyl]amino}-5,6,7,8-tetrahydro-1-naphthalenol]", "values": [{"measurement": "rotigotine plasma concentration, Max", "setting": "[1]", "result": 2.130, "unit": "ng/mL"}, {"measurement": "rotigotine plasma concentration, Mean", "setting": "[1]", "result": 0.757, "unit": "ng/mL"}, {"measurement": "rotigotine plasma concentration, Median", "setting": "[1]", "result": 0.714, "unit": "ng/mL"}, {"measurement": "rotigotine plasma concentration, Min", "setting": "[1]", "result": 0.064, "unit": "ng/mL"}, {"measurement": "rotigotine plasma concentration, Max", "setting": "[2]", "result": 1.580, "unit": "ng/mL"}, {"measurement": "rotigotine plasma concentration, Mean", "setting": "[2]", "result": 0.508, "unit": "ng/mL"}, {"measurement": "rotigotine plasma concentration, Median", "setting": "[2]", "result": 0.435, "unit": "ng/mL"}, {"measurement": "rotigotine plasma concentration, Min", "setting": "[2]", "result": 0.053, "unit": "ng/mL"}, {"measurement": "rotigotine plasma concentration, Max", "setting": "[3]", "result": 2.070, "unit": "ng/mL"}, {"measurement": "rotigotine plasma concentration, Mean", "setting": "[3]", "result": 0.824, "unit": "ng/mL"}, {"measurement": "rotigotine plasma concentration, Median", "setting": "[3]", "result": 0.702, "unit": "ng/mL"}, {"measurement": "rotigotine plasma concentration, Max", "setting": "[4]", "result": 2.420, "unit": "ng/mL"}, {"measurement": "rotigotine plasma concentration, Mean", "setting": "[4]", "result": 0.825, "unit": "ng/mL"}, {"measurement": "rotigotine plasma concentration, Median", "setting": "[4]", "result": 0.713, "unit": "ng/mL"}, {"measurement": "rotigotine plasma concentration, Min", "setting": "[4]", "result": 0.122, "unit": "ng/mL"}, {"measurement": "rotigotine plasma concentration, Max", "setting": "[5]", "result": 1.800, "unit": "ng/mL"}, {"measurement": "rotigotine plasma concentration, Mean", "setting": "[5]", "result": 0.788, "unit": "ng/mL"}, {"measurement": "rotigotine plasma concentration, Median", "setting": "[5]", "result": 0.729, "unit": "ng/mL"}, {"measurement": "rotigotine plasma concentration, Min", "setting": "[5]", "result": 0.282, "unit": "ng/mL"}, {"measurement": "rotigotine plasma concentration over the maintenance phase", "setting": "FIG. 10", "result": "stable concentration"}]}
